68 compounds from US12391674B2, “Heterocyclic compounds for the treatment of epilepsy” (OTSUKA PHARMACEUTICAL CO., LTD., priority 2018, dated 2025) can be followed below.

Counter-ions that a name gives are not always drawn. Bounds are passed on as bounds.

The test system of the first assay is DBA/2 mice. The assay can be described thus: Audiogenic seizure model. The following applies: Mus musculus; DBA/2 mice, oral, dose 5 mg/kg, auditory stimulation 1 hour after administration; read-out: Seizure suppression. Format: in vivo. Here is the method:
The animal model used in this test is a phenotype model for partial seizure (including secondary generalized seizure) and generalized tonic-clonic seizure, and has high clinical predictability. This test was performed in accordance with the report of De Sarro et al (Br J Pharmacol. 1988 February; 93 (2): 247-56. Anticonvulsant effects of some calcium entry blockers in DBA/2 mice. De Sarro G B, Meldrum B S, Nistico G.).
In this test example, the example compounds shown in Tables 3-1 to 3-3 below were used as test compounds.
The test compounds were suspended in 5% gum arabic/distilled water (w/v), and administered by forced oral administration to male and female DBA/2 mice (Japan SLC, Inc., 3 weeks old, 8 per group) at a dose of 30 mg/kg. After one hour of the oral administration of the test compound, each mouse was placed in a transparent acrylic cylinder 30 cm high and 23 cm in diameter, and 30 seconds were allowed for habituation. Then, they were exposed to auditory stimulation (12.6 kHz, 100-110 dB) for 1 minute or until a tonic seizure occurred.
The seizure response was assessed using the following scale, 0: no seizure, 1: wild running, 2: clonic seizure, 3: tonic seizure and 4: respiratory arrest. The maximum response was recorded as the seizure severity score.
The seizure suppression rate for each compound administration group was calculated according to the following formula.
Here, a rate of seizure suppression of 90% or more was expressed as “A”, a rate of seizure suppression of 70% or more and less than 90% was expressed as “B”, and a rate of seizure suppression of 50% or more and less than 70% was expressed as “C”.
Consider `O=C1Cc2cc(-c3cnc(Oc4ccccc4F)nc3)ccc2N1` [Example 264], for which the inhibition in vivo at 5 mg/kg is above 90%.

The same assay, now with this note: Mus musculus; DBA/2 mice, oral, dose 30 mg/kg, auditory stimulation 1 hour after administration; read-out: Seizure suppression.
For `Cc1c(-c2cnc(Oc3ccccc3F)nc2)ccc2nccn12` [Example 199], the inhibition in vivo at 30 mg/kg was above 90%.
As to `Cc1c(-c2cnc(Oc3cccc(F)c3)nc2)ccc2nccn12` [Example 200], the inhibition in vivo at 30 mg/kg is above 90%.
With `Cc1c(-c2cnc(Oc3ccc(F)cc3)nc2)ccc2nccn12` [Example 201], the inhibition in vivo at 30 mg/kg was above 90%.
Regarding `Cc1nc2ccc(-c3cnc(Oc4ccccc4F)nc3)cn2c1C` [Example 202], the inhibition in vivo at 30 mg/kg is above 90%.
Regarding `Cc1nc2ccc(-c3cnc(Oc4ccc(F)cc4)nc3)cn2c1C` [Example 203], the inhibition in vivo at 30 mg/kg is above 90%.
On to `Cc1nc2cc(-c3cnc(Oc4ccccc4F)nc3)ccn2c1C` [Example 205], for which the inhibition in vivo at 30 mg/kg is above 90%.
For the compound `Cc1nc2cc(-c3cnc(Oc4cccc(F)c4)nc3)ccn2c1C` [Example 206], the inhibition in vivo at 30 mg/kg is above 90%.
In the case of `Cc1nc2cc(-c3cnc(Oc4ccc(F)cc4)nc3)ccn2c1C` [Example 207], the inhibition in vivo at 30 mg/kg was above 90%.
On the same count and under the same terms, with `COCc1cn2cc(-c3cnc(Oc4ccccc4)nc3)ccc2n1` [Example 208] the figure was above 90%.
On the same count and under the same terms, with `COCc1cn2cc(-c3cnc(Oc4ccccc4F)nc3)ccc2n1` [Example 209] the figure was above 90%; with `COCc1cn2cc(-c3cnc(Oc4cccc(F)c4)nc3)ccc2n1` [Example 210], above 90%; with `Fc1cccc(Oc2ncc(-c3ccn4cnnc4c3)cn2)c1` [Example 212], above 90%.
Take `Fc1ccc(Oc2ncc(-c3ccn4cnnc4c3)cn2)cc1` [Example 213]: the inhibition in vivo at 30 mg/kg is above 90%.
On to `Cn1ccc2ccc(-c3cnc(Oc4ccccc4)nc3)nc21` [Example 215], for which the inhibition in vivo at 30 mg/kg is above 90%.
In the case of `Fc1ccccc1Oc1ncc(-c2ccn3cc(C(F)(F)F)nc3c2)cn1` [Example 217], the inhibition in vivo at 30 mg/kg is above 90%.
Turning to `Fc1cccc(Oc2ncc(-c3ccn4cc(C(F)(F)F)nc4c3)cn2)c1` [Example 218], the inhibition in vivo at 30 mg/kg is above 90%.
Still for that read-out and setting: next, `Fc1ccc(Oc2ncc(-c3ccn4cc(C(F)(F)F)nc4c3)cn2)cc1` [Example 219]: above 90%.
Turning to `O=C1NCCCN1c1cnc(Oc2cccc(F)c2)nc1` [Example 221, 1-(2-(3-Fluorophenoxy)Pyrimidin-5-Yl)Tetrahydropyrimidin-2 (1H)-One], the inhibition in vivo at 30 mg/kg is above 90%.
Take `Fc1ccc(Oc2ncc(N3CCOCC3)cn2)cc1` [Example 225]: the inhibition in vivo at 30 mg/kg was above 90%.
As to `OC1CCN(c2cnc(Oc3cccc(F)c3)nc2)CC1` [Example 227], the inhibition in vivo at 30 mg/kg was above 90%.
`OC1CCN(c2cnc(Oc3ccc(F)cc3)nc2)CC1` [Example 228]: the inhibition in vivo at 30 mg/kg is above 90%.
On the same count and under the same terms, next, `O=C1COCCN1c1cnc(Oc2cccc(F)c2)nc1` [Example 230]: above 90%; `O=C1COCCN1c1cnc(Oc2ccc(F)cc2)nc1` [Example 231]: above 90%.
With `O=C1CCOCCN1c1cnc(Oc2ccccc2)nc1` [Example 232], the inhibition in vivo at 30 mg/kg was above 90%.
Turning to `O=C1CCOCCN1c1cnc(Oc2cccc(F)c2)nc1` [Example 233], the inhibition in vivo at 30 mg/kg was above 90%.
The same measure, in the same setting: with `O=C1CCOCCN1c1cnc(Oc2ccc(F)cc2)nc1` [Example 234] the figure was above 90%; with `Cc1nc2cc(-c3cnc(Oc4ccccc4)nc3)ccc2s1` [Example 238], above 90%.
As to `Nc1nc2ccc(-c3cnc(Oc4ccccc4)nc3)cc2s1` [Example 240, 6-(2-Phenoxypyrimidin-5-Yl)Benzo[d]Thiazol-2-Amine], the inhibition in vivo at 30 mg/kg was above 90%.
On to `c1ccc(Oc2ncc(-c3ccc4scnc4c3)cn2)cc1` [Example 241], for which the inhibition in vivo at 30 mg/kg is above 90%.
Take `c1ccc(Oc2ncc(-c3ccc4cccnc4c3)cn2)cc1` [Example 244]: the inhibition in vivo at 30 mg/kg is above 90%.
Turning to `O=C1CCc2ccc(-c3cnc(Oc4ccccc4)nc3)cc2N1` [Example 246], the inhibition in vivo at 30 mg/kg was above 90%.
Take `O=C1NCCc2cc(-c3cnc(Oc4ccccc4)nc3)ccc21` [Example 247]: the inhibition in vivo at 30 mg/kg was above 90%.
The same measure, in the same setting: next, `c1ccc(Oc2ncc(-c3cccc4ccncc34)cn2)cc1` [Example 249]: above 90%; `c1ccc(Oc2ncc(-c3ccc4ncccc4c3)cn2)cc1` [Example 250]: above 90%; `c1ccc(Oc2ncc(-c3ccc4cnccc4c3)cn2)cc1` [Example 251]: above 90%.
For `c1ccc(Oc2ncc(-c3ccc4ccncc4c3)cn2)cc1` [Example 252], the inhibition in vivo at 30 mg/kg was above 90%.
In the case of `c1ccc(Oc2ncc(-c3ccc4nccnc4c3)cn2)cc1` [Example 253], the inhibition in vivo at 30 mg/kg is above 90%.
As to `O=c1[nH]cnc2ccc(-c3cnc(Oc4ccccc4)nc3)cc12` [Example 254], the inhibition in vivo at 30 mg/kg is above 90%.
Consider `c1ccc(Oc2ncc(-c3ccc4ncncc4c3)cn2)cc1` [Example 255], for which the inhibition in vivo at 30 mg/kg is above 90%.
Regarding `c1ccc(Oc2ncc(-c3ccc4[nH]cnc4c3)cn2)cc1` [Example 257, 5-(2-Phenoxypyrimidin-5-Yl)-1H-Benzo[d]Imidazole Oxalate], the inhibition in vivo at 30 mg/kg was above 90%.
For `Cn1ccc2cc(-c3cnc(Oc4ccccc4)nc3)ccc21` [Example 260], the inhibition in vivo at 30 mg/kg is above 90%.
Turning to `Nc1nccc2c(-c3cnc(Oc4ccccc4)nc3)cccc12` [Example 261], the inhibition in vivo at 30 mg/kg is above 90%.
Same read-out and setting: with `Cn1ccc2c(-c3cnc(Oc4ccccc4)nc3)cccc21` [Example 263] the figure was above 90%.
Turning to `O=C1Cc2cc(-c3cnc(Oc4ccccc4F)nc3)ccc2N1` [Example 264], the inhibition in vivo at 30 mg/kg is above 90%.
On the same count and under the same terms, with `O=C1Cc2cc(-c3cnc(Oc4cccc(F)c4)nc3)ccc2N1` [Example 265] the figure was above 90%.
As to `O=C1Cc2cc(-c3cnc(Oc4ccc(F)cc4)nc3)ccc2N1` [Example 266], the inhibition in vivo at 30 mg/kg is above 90%.
As for `Clc1cc2c(-c3cnc(Oc4ccccc4)nc3)cccc2cn1` [Example 268], the inhibition in vivo at 30 mg/kg is above 90%.
For the compound `O=C1Cc2ccc(-c3cnc(Oc4ccccc4F)nc3)cc2N1` [Example 269], the inhibition in vivo at 30 mg/kg is above 90%.
With `O=C1CCc2cc(-c3cnc(Oc4ccccc4F)nc3)ccc2N1` [Example 270], the inhibition in vivo at 30 mg/kg is above 90%.
On to `O=C1Nc2ccc(-c3cnc(Oc4ccccc4)nc3)cc2C1=O` [Example 271], for which the inhibition in vivo at 30 mg/kg was above 90%.
Consider `O=C1Cc2c(cccc2-c2cnc(Oc3ccccc3)nc2)N1` [Example 272], for which the inhibition in vivo at 30 mg/kg was above 90%.
`COc1nc(Oc2ccccc2)ncc1-c1cccc2c1CC(=O)N2` [Example 273]: the inhibition in vivo at 30 mg/kg is above 90%.
For `COc1nc(Oc2ccccc2)ncc1-c1ccc2c(c1)CC(=O)N2` [Example 274], the inhibition in vivo at 30 mg/kg is above 90%.
For the compound `Cn1ncc2ccc(-c3cnc(Oc4ccccc4F)nc3)nc21` [Example 276], the inhibition in vivo at 30 mg/kg was above 90%.
`Cn1ncc2ccc(-c3cnc(Oc4cccc(F)c4)nc3)nc21` [Example 277]: the inhibition in vivo at 30 mg/kg is above 90%.
Consider `Cn1ncc2ccc(-c3cnc(Oc4ccc(F)cc4)nc3)nc21` [Example 278], for which the inhibition in vivo at 30 mg/kg is above 90%.
As to `Fc1ccccc1Oc1ncc(-c2ccc3nnc(C(F)(F)F)n3c2)cn1` [Example 280], the inhibition in vivo at 30 mg/kg is above 90%.
For `Fc1cccc(Oc2ncc(-c3ccc4nnc(C(F)(F)F)n4c3)cn2)c1` [Example 281], the inhibition in vivo at 30 mg/kg was above 90%.
On to `Fc1ccc(Oc2ncc(-c3ccc4nnc(C(F)(F)F)n4c3)cn2)cc1` [Example 282], for which the inhibition in vivo at 30 mg/kg is above 90%.
Still for that read-out and setting: with `Fc1ccccc1Oc1ncc(-c2ccc3cnc(C(F)(F)F)n3c2)cn1` [Example 286] the figure was above 90%; with `Fc1cccc(Oc2ncc(-c3ccc4cnc(C(F)(F)F)n4c3)cn2)c1` [Example 287], above 90%.
On the same count and under the same terms, with `Fc1ccc(Oc2ncc(-c3ccc4cnc(C(F)(F)F)n4c3)cn2)cc1` [Example 288] the figure was above 90%.
The same measure, in the same setting: with `Fc1ccccc1Oc1ncc(-c2ccc3nncn3n2)cn1` [Example 290] the figure was above 90%; with `Fc1cccc(Oc2ncc(-c3ccc4nncn4n3)cn2)c1` [Example 291], above 90%; with `Fc1ccc(Oc2ncc(-c3ccc4nncn4n3)cn2)cc1` [Example 292], above 90%.
As for `FC(F)(F)c1cccc(-c2cnc(Oc3ccccc3)nc2)n1` [Example 301], the inhibition in vivo at 30 mg/kg was above 90%.
On to `CN1C(=O)CCN(c2ccc(Oc3cccc(F)c3)cc2)C1=O` [Example 308, 1-(4-(3-Fluorophenoxy)Phenyl)-3-Methyldihydropyrimidine-2,4 (1H,3H)-Dione], for which the inhibition in vivo at 30 mg/kg lay within 50 to 70%.
Turning to `O=C1CCN(c2ccc(Oc3ccc(F)cc3)cc2)C(=O)N1` [Example 310], the inhibition in vivo at 30 mg/kg is 50 to 70%.
